Experimental data as given in patent EP4410314A1, “COMBINATION THERAPY COMPRISING ANTI-CD22 ANTIBODY-DRUG CONJUGATE AND IRAK1 INHIBITOR” (ADC Therapeutics SA, priority 2023, dated 2024).

Key:
[1] = tested on: CD22; test: CD22 cell surface expression after chidamide treatment, flow cytometry; type: cell-based; conditions: chidamide 0.25 or 0.5 µM for 7 days; Ramos, TMD8, and SU-DHL-4 cell lines
Method: (§1) Chidamide (Selleckchem) was dissolved in dimethyl sulfoxide (DMSO) according to the manufacturer's instructions. Cells were treated with chidamide (0.25 or 0.5 µM) for 7 days at 37°C in a 5% carbon dioxide-gassed, humidified incubator. On day 3, cells were centrifuged, and fresh medium containing the corresponding concentrations of chidamide was added. The control group was treated with equal volumes of DMSO.
CD22 cell surface expression after chidamide treatment was measured by flow cytometry. hLL2-C220 and B12 antibodies, followed by Alexa Fluor 488 anti-human secondary antibodies (Life Technologies, Thermo Fisher Scientific) or allophycocyanin anti-human secondary antibodies (BioLegend), were used for CD22 detection. Cells were analyzed using a CytoFLEX Flow Cytometer (Beckman Coulter), and data were analyzed with FlowJo software version 10.8.1 (BD Biosciences).

[2] = tested on: MZL; test: In vitro cytotoxic activity, lymphoma cell line panel: MZL; type: cell-based, human; conditions: 6 cell lines, read-out: Median IC50
[3] = tested on: GCB-DLBCL; test: In vitro cytotoxic activity, lymphoma cell line panel: GCB-DLBCL; type: cell-based, human; conditions: 20 cell lines, read-out: Median IC50
[4] = tested on: Ramos; test: In vitro cytotoxicity, Ramos; type: cell-based, human; conditions: Ramos (BL), CD22-positive; mean ± SEM
[5] = tested on: ALCL; test: In vitro cytotoxic activity, lymphoma cell line panel: ALCL; type: cell-based, human; conditions: 5 cell lines, read-out: Median IC50
[6] = tested on: B cells; test: B-cell depletion from circulation; type: in vivo; conditions: cynomolgus monkeys, after one ADCT-602 dose
[7] = tested on: KARPAS-299 xenograft; test: SC KARPAS-299 xenograft model (CD22-negative); type: in vivo, mice; conditions: single 1 mg/kg dose; end of the study (day 29)
Excerpt: (§2) Ramos, WSU-DLCL2, and KARPAS-299 xenografts were established in 8- to 10-week-old female Fox Chase mice with severe combined immunodeficiency (Charles River Laboratories) by implanting 10^7 cells subcutaneously (SC) into their flanks. When group mean tumor volumes reached approximately 116 to 132 mm^3, mice were randomly allocated into groups to receive the test agent or vehicle. Each animal was euthanized when its tumor reached the end point volume or at the study end. The time to end point (TTE) for analysis was calculated for each mouse by the following equation: TTE (days) = ([log10(end point volume−intercept^(*)]/slope^(*)) [formula] where the * indicates the slope of the line obtained by linear regression of a log-transformed tumor growth data set.
(§3) The log-rank test was used to analyze the significance of differences in TTE between the 2 groups. For the disseminated xenografts model, 10^7 REH cells were inoculated intravenously (IV) into 5- to 8-week-old female NOG mice (Taconic Biosciences). Test compounds were administered IV 4 days after tumor cell inoculation. Individual mice were euthanized, and an autopsy was performed when hind leg paralysis (a sign of leukemia development) occurred and/or the body weight decreased ≥20%. The study was terminated on day 62. The log-rank test was used to determine the significance of the differences in overall survival.

[8] = tested on: PTCL-NOS; test: In vitro cytotoxic activity, lymphoma cell line panel: PTCL-NOS; type: cell-based, human; conditions: 1 cell line, read-out: Median IC50
[9] = tested on: NAMALWA; test: In vitro cytotoxicity, NAMALWA; type: cell-based, human; conditions: NAMALWA (BL), CD22-positive; mean ± SEM
[10] = tested on: ABC-DLBCL; test: In vitro cytotoxic activity, lymphoma cell line panel: ABC-DLBCL; type: cell-based, human; conditions: 6 cell lines, read-out: Median IC50
[11] = tested on: MCL; test: In vitro cytotoxic activity, lymphoma cell line panel: MCL; type: cell-based, human; conditions: 10 cell lines, read-out: Median IC50
[12] = tested on: Daudi; test: In vitro cytotoxicity, Daudi; type: cell-based, human; conditions: Daudi (BL), CD22-positive; mean ± SEM
[13] = tested on: KARPAS-299; test: DNA interstrand crosslinks, single cell gel electrophoresis (Comet) assay, KARPAS-299; type: cell-based, human; conditions: KARPAS-299 (CD22-negative), over 48 hours following a 2-hour treatment
Method: (§4) Quantification of in vitro DNA interstrand crosslinks (ICLs) was performed using the single cell gel electrophoresis (Comet) assay.
(§5) DNA ICLs were measured using a modification of the single-cell gel electrophoresis (Comet) assay, and crosslinking was expressed as the percentage decrease in Olive tail moment (OTM) versus control irradiated cells. […] Immediately after the drug incubation period, a low level of ICLs (3%) was observed, which increased over time to near peak levels (≈50%) at 12 hours and persisted up to 48 hours. […] In this cell line, SG3199 produced a high level of ICL (≈50%), similar to that observed in the Ramos cell line.

[14] = tested on: B-cell lymphomas; conditions: read-out: Median IC50, 48 cell lines
[15] = tested on: WSU-DLCL2 xenograft; test: SC WSU-DLCL2 xenograft model; type: in vivo, mice
Excerpt: as §2, §3

[16] = tested on: HL; test: In vitro cytotoxic activity, lymphoma cell line panel: HL; type: cell-based, human; conditions: 3 cell lines, read-out: Median IC50
[17] = tested on: CLL; test: In vitro cytotoxic activity, lymphoma cell line panel: CLL; type: cell-based, human; conditions: 2 cell lines, read-out: Median IC50
[18] = tested on: MEC-2; test: In vitro cytotoxicity, MEC-2; type: cell-based, human; conditions: MEC-2 (CLL), CD22-positive; mean ± SEM
[19] = tested on: DO HH-2; test: In vitro cytotoxicity, DO HH-2; type: cell-based, human; conditions: DO HH-2 (FL), CD22-positive; mean ± SEM
[20] = tested on: Ramos cells; test: DNA interstrand crosslinks, single cell gel electrophoresis (Comet) assay, Ramos; type: cell-based, human; conditions: 2-hour exposure
Method: as §4, §5

[21] = tested on: PMBCL; test: In vitro cytotoxic activity, lymphoma cell line panel: PMBCL; type: cell-based, human; conditions: 1 cell line, read-out: Median IC50
[22] = tested on: T-cell lymphomas; test: In vitro cytotoxic activity, lymphoma cell line panel: T-cell lymphomas; type: cell-based, human; conditions: 9 cell lines, read-out: Median IC50
[23] = tested on: KM-H2; test: In vitro cytotoxicity, KM-H2; type: cell-based, human; conditions: KM-H2 (HL), CD22-negative; mean ± SEM
[24] = tested on: GRANTA-519; test: In vitro cytotoxicity, GRANTA-519; type: cell-based, human; conditions: GRANTA-519 (MCL), CD22-positive; mean ± SEM
[25] = tested on: CD22-expressing Ramos cells; test: Cell surface binding, internalization and LAMP-1 colocalization; type: cell-based, human
[26] = tested on: NALM-6; test: In vitro cytotoxicity, NALM-6; type: cell-based, human; conditions: NALM-6 (B-ALL), CD22-positive; mean ± SEM
[27] = tested on: Ramos xenograft; test: SC Ramos xenograft; type: in vivo, mice
Excerpt: as §2, §3

[28] = tested on: REH; test: In vitro cytotoxicity, REH; type: cell-based, human; conditions: REH (B-ALL), CD22-positive; mean ± SEM
[29] = tested on: CTCL; test: In vitro cytotoxic activity, lymphoma cell line panel: CTCL; type: cell-based, human; conditions: 3 cell lines, read-out: Median IC50
[30] = tested on: CD22-negative KARPAS-299 cells; test: Bystander killing by conditioned medium transfer; type: cell-based, human; conditions: for percentage survival of KARPAS-299 cells: 96 hours incubation
Method: The ADCT-602-conditioned medium elicited a bystander effect after 1 day of pretreatment, as shown by a decrease in the percentage survival in the conditioned medium-treated KARPAS-299 cells, compared with the nonconditioned medium (97% to 78%, P = .001). The bystander effect increased after 2 to 3 days of preincubation in Ramos cells, as shown by a further decrease in the percentage of cell survival compared with the nonconditioned medium (66% and 62%, P < .0001).

[31] = tested on: SEM cells; test: In vitro cytotoxicity, SEM; type: cell-based, human; conditions: SEM (B-ALL), CD22-positive; mean ± SEM
[32] = tested on: REH cells; test: Disseminated B-ALL-derived xenograft model (REH); type: in vivo, mice
Method: as §3

[33] = tested on: KARPAS-299; test: In vitro cytotoxicity, KARPAS-299; type: cell-based, human; conditions: KARPAS-299 (ALCL), CD22-negative; mean ± SEM
[34] = tested on: SUP-T1; test: In vitro cytotoxicity, SUP-T1; type: cell-based, human; conditions: SUP-T1 (T-LL), CD22-negative; mean ± SEM
[35] = tested on: Ramos, TMD8, and SU-DHL-4 cell lines; test: In vitro cytotoxicity following pretreatment with chidamide; type: cell-based; conditions: pretreatment with chidamide (0.25 or 0.5 µM) for 7 days, then ADC for 5 days
Method: as §1
Cell viability was measured with the CellTiter 96 Aqueous One Solution Cell Proliferation Assay (Promega). Data were normalized to untreated control cells. The IC50 values were determined using GraphPad software (GraphPad). The mean and standard errors of 3 independent IC50 values were determined.

[36] = single dose 3 mg/kg, end of the study (day 59)
[37] = single dose 1 mg/kg, end of the study (day 60)

Nc1cc(F)ccc1NC(=O)c1ccc(CNC(=O)/C=C/c2cccnc2)cc1 [chidamide]
increase of CD22 expression compared with DMSO-treated cells (MFI fold change) [1]: up to 2.4 times

ADCT-602: novel ADC targeting CD22 that consists of humanized monoclonal antibody hLL2-C220, sitespecifically conjugated to the pyrrolobenzodiazepine (PBD) dimer-based payload tesirine
IC50 [2]: 0.0625 nM | IC50 [3]: 0.1 nM | IC50 [4]: 0.06 ± 0.021 nM | IC50 [5]: 2.85 nM | depletion of B cells from circulation [6]: efficiently depleted | antitumor activity compared with the vehicle group [7]: no significant antitumor activity | IC50 [8]: 0.7 nM | IC50 [9]: 2.27 ± 0.052 nM | IC50 [10]: 0.395 nM | IC50 [11]: 0.375 nM | IC50 [12]: 0.07 ± 0.021 nM | DNA ICLs, percentage decrease in Olive tail moment (OTM) versus control irradiated cells [13]: ≈ 15% | IC50 [14]: 0.2 nM | CRs [15, 36]: 7/10 | partial responders [15, 36]: 3/10 | tumor-free survivors [15, 36]: 2/10 | antitumor activity compared with the vehicle and the isotype control ADC ([15]; single dose at 1 and 3 mg/kg): dose-dependent antitumor activity | IC50 [16]: 4.5 nM | IC50 [17]: 0.23 nM | IC50 [18]: 0.18 ± 0.05 nM | IC50 [19]: 0.06 ± 0.009 nM | DNA ICLs, percentage decrease in Olive tail moment (OTM) versus control irradiated cells ([20]; immediately after the drug incubation period): 3% | DNA ICLs, percentage decrease in Olive tail moment (OTM) versus control irradiated cells ([20]; peak / near peak level at 12 hours): ≈ 50% | IC50 [21]: 0.035 nM | IC50 [22]: 1.85 nM | IC50 [23]: 11.4 ± 1.11 nM | IC50 [24]: 0.02 ± 0.0005 nM | internalization and trafficking to lysosomes ([25]; 37°C, 1- and 2-hour time points): cellular internalization and colocalization of ADCT-602 with LAMP-1 | residual ADC staining ([25]; 24 hours): no residual ADC staining | cell surface (membrane) binding ([25]; T 0 hours): prominent cell surface binding | IC50 [26]: 0.11 ± 0.018 nM | CRs [27, 37]: 10/10 | tumor-free survivors [27, 37]: 9/10 | antitumor activity compared with the vehicle and the isotype control ADC ([27]; single dose at 0.3 and 1 mg/kg): specific and dose-dependent antitumor activity | IC50 [28]: 0.05 ± 0.006 nM | IC50 [29]: 1.75 nM | change in percentage of cell survival compared with the nonconditioned medium ([30]; conditioned medium from ADCT-602-treated, CD22-negative NCI-N87 cells): no significant change | percentage survival of KARPAS-299 cells ([30]; conditioned medium from Ramos cells treated with ADCT-602 for 1 day): 78% | percentage survival of KARPAS-299 cells ([30]; conditioned medium from Ramos cells treated with ADCT-602 for 2 days): 66% | percentage survival of KARPAS-299 cells ([30]; conditioned medium from Ramos cells treated with ADCT-602 for 3 days): 62% | percentage survival of KARPAS-299 cells ([30]; nonconditioned medium, comparator for 1 day pretreatment): 97% | IC50 [31]: 0.52 ± 0.08 nM | survival time, single dose versus equivalent fractionated dose ([32]; single 1.3 mg/kg versus 0.45 mg/kg, every 4 days, for 3 times [Q4D×3]): comparable survival time | survival compared with the vehicle and the isotype control ADC ([32]; single dose at 0.45 mg/kg and 1.3 mg/kg IV): dose-dependent extension of survival | IC50 [33]: 51.7 ± 3.86 nM | IC50 [34]: 9.34 ± 1.02 nM | improvement of ADCT-602 IC50 compared with cells pretreated with DMSO [35]: up to 2.5 fold
